Assay results: patent publication US10301280B2 (Plexxikon Inc., priority 2012, dated 2019)

Tests used:
[1] = biological target: c-kit mutant D816V (Homo sapiens (Human), UniProt P10721, D816V/DEL694-753); experiment: c-Kit mutant D816V biochemical assay (AlphaScreen); details: c-kit D816V biochemical inhibitory activity
Procedure, shortened: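 His-tagged c-Kit D816V kinase domain (551-934, Δ694-753, E. coli) phosphorylating 30 nM biotin-(E4Y)10 at 10 μM ATP in HEPES pH 7.2 with Mg/Mn, 5% DMSO, 30 min at room temperature. PY20-acceptor/streptavidin-donor AlphaScreen detection after EDTA stop. IC50 from 8-point 1:3 titration.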

[2] = biological target: c-kit kinase (Homo sapiens (Human), UniProt P10721); experiment: c-Kit biochemical assay (AlphaScreen); details: c-kit biochemical inhibitory activity
Procedure: Assays for biochemical cell-based activity of c-kit kinase are known in the art, for example, as described in U.S. Pat. Nos. 7,498,342 and 7,846,941, the disclosures of which are hereby incorporated by reference as it relates to such assays. The c-kit (or kinase domain thereof) is an active kinase in AlphaScreen. IC50 values are determined with respect to inhibition of c-Kit kinase activity, where inhibition of phosphorylation of a peptide substrate is measured as a function of compound concentration. Compounds to be tested were dissolved in DMSO to a concentration of 20 mM. These were diluted 30 μl into 120 μl of DMSO (4 mM) and 1 μl was added to an assay plate. These were then serially diluted 1:3 (50 μl to 100 μl DMSO) for a total of 8 points. Plates were prepared such that each kinase reaction is 20 μl in 1× kinase buffer (50 mM HEPES, pH 7.2, 5 mM MgCl2, 5 mM MnCl2, 0.01% NP-40, 0.2% BSA), 5% DMSO and 10 µM ATP. Substrate was 100 nM biotin-(E4Y)3 (Open Source Biotech, Inc.). C-kit kinase was at 0.1 ng per sample. After incubation of the kinase reaction for 1 hour at room temperature, 5 μl of donor beads (Streptavidin coated beads (Perkin Elmer Life Science) final concentration 1 μg/ml) in stop buffer (50 mM EDTA in 1× kinase buffer) was added, the sample was mixed and incubated for 20 minutes at room temperature before adding 5 μl of acceptor beads (PY20 coated beads (Perkin Elmer Life Science) final concentration 1 μg/ml) in stop buffer. The samples were incubated for 60 minutes at room temperature and the signal per well was read on AlphaQuest reader. Phosphorylated substrate results in binding of the PY20 antibody and association of the donor and acceptor beads such that signal correlates with kinase activity. The signal vs. compound concentration was used to determine the IC50.
Compounds were also tested using a similar assay with a 10-fold higher ATP concentration. For these samples, compounds to be tested were dissolved in DMSO to a concentration of 20 mM. These were diluted 30 μl into 120 μl of DMSO (4 mM) and 1 μl was added to an assay plate. These were then serially diluted 1:3 (50 μl to 100 μl DMSO) for a total of 8 points. Plates were prepared such that each kinase reaction is 20 μl in 1× kinase buffer (25 mM HEPES, pH 7.5, 2 mM MgCl2, 2 mM MnCl2, 0.01% Tween-20, 1 mM DTT, and 0.001% BSA), 5% DMSO and 100 µM ATP. Substrate was 30 nM biotin-(E4Y)10 (Upstate Biotech, Cat#12-440). C-kit kinase was at 1 ng per sample. After incubation of the kinase reaction for 1 hour at room temperature, 5 μl of donor beads (Streptavidin coated beads (Perkin Elmer Life Science) final concentration 10 μg/ml) in stop buffer (25 mM HEPES pH 7.5, 100 mM EDTA, 0.3% BSA) was added, the sample was mixed and incubated for 20 minutes at room temperature before adding 5 μl of acceptor beads (PY20 coated beads (Perkin Elmer Life Science) final concentration 10 μg/ml) in stop buffer. The samples were incubated for 60 minutes at room temperature and the signal per well was read on AlphaQuest or Envision reader (Perkin Elmer Life Science). Phosphorylated substrate results in binding of the PY20 antibody and association of the donor and acceptor beads such that signal correlates with kinase activity. The signal vs. compound concentration was used to determine the IC50.
The c-kit enzyme used in the above assay was either obtained from Cell Signaling Technology (Cat. #7754) or was prepared as follows: A plasmid encoding kit (DNA and encoded protein sequences shown below) was engineered using common polymerase chain reaction (PCR) methods. Complementary DNA cloned from various human tissues were purchased from Invitrogen, and these were used as substrates in the PCR reactions. Specific custom synthetic oligonucleotide primers were designed to initiate the PCR product, and also to provide the appropriate restriction enzyme cleavage sites for ligation with the plasmids. […]

[3] = system: BaF3-FL KIT D816V or BaF3-FL KIT V560G/D816V cell line; experiment: Cell-based assays of c-Kit mutant kinase activity (cell growth, ATPlite); details: at least one of the c-kit cell assays of Example 26
Procedure, shortened: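 IC50 derived from ATP-content luminescence (ATPlite) after three-day compound exposure at 37° C., 5% CO2. Cells: BaF3 rendered growth-dependent on full-length human KIT D816V or V560G/D816V, 1×10^4 per well, RPMI plus 10% FBS; 8 points, 1:3 steps, maximum 10 μM final, 0.2% DMSO.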

c-kit kinase, sequence (P10721 26-976): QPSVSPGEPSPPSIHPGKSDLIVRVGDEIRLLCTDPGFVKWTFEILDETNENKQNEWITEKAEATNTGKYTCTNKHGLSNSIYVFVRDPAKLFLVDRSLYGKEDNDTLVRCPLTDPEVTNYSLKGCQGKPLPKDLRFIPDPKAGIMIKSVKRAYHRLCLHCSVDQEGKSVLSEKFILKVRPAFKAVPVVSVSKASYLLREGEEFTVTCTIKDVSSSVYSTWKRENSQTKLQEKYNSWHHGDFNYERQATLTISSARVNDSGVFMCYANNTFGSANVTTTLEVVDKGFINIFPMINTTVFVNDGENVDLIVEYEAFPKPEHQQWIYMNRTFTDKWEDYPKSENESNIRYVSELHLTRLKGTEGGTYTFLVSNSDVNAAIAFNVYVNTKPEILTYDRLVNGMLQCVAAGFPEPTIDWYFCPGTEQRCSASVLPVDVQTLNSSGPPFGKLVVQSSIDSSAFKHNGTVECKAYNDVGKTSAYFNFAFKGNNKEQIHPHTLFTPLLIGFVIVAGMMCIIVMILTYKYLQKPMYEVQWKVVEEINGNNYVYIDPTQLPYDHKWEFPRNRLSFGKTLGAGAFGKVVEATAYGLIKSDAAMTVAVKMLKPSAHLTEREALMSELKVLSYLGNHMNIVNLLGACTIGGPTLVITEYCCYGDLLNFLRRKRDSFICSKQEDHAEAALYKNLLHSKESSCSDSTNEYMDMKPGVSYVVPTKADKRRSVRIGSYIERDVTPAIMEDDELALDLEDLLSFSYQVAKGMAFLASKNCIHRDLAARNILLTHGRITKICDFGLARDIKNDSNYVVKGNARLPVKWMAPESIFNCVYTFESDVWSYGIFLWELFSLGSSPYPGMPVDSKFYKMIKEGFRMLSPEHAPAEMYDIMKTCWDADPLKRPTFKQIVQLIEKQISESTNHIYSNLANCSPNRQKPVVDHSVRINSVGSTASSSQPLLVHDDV
c-kit mutant D816V, sequence (P10721 other isoform, or with tags, fused parts or gaps D816V/del 694-753): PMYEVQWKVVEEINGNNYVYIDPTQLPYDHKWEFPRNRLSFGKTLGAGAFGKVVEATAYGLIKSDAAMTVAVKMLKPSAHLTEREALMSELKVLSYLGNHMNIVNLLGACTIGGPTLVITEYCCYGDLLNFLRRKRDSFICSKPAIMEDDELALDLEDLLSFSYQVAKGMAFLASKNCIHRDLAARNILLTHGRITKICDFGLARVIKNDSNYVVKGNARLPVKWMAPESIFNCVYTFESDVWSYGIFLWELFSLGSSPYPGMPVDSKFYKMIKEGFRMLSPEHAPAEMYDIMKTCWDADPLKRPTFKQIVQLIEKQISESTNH

| Structure (SMILES) | IC50 [1] [µM] | IC50 [2] [µM] | IC50 [3] [µM] |
| --- | --- | --- | --- |
| O=C(Nc1cnc2[nH]c(-c3ccccc3)cc2c1)c1n[nH]c2ccc(F)cc12 [P-2010, 5-fluoro-N-(2-phenyl-1H-pyrrolo[2,3-b]pyridin-5-yl)-1H-indazole-3-carboxamide] | 10 to 200 | 10 to 200 |  |
| O=S(=O)(Nc1cnc2[nH]c(-c3ccccc3)cc2c1)c1cn[nH]c1 [P-2018] | 10 to 200 | 10 to 200 |  |
| NC(=O)c1cccc(C(=O)Nc2cnc3[nH]c(-c4ccc(F)cc4)cc3c2)c1 [P-2020, N3-[2-(4-fluorophenyl)-1H-pyrrolo[2,3-b]pyridin-5-yl]benzene-1,3-dicarboxamide] |  | 1 to 10 | < 10 |
| Cc1n[nH]c(C(=O)Nc2cnc3[nH]c(-c4ccc(F)c(C)c4C)cc3c2)c1C [P-2279, N-[2-(4-fluoro-2,3-dimethyl-phenyl)-1H-pyrrolo[2,3-b]pyridin-5-yl]-3,4-dimethyl-1H-pyrazole-5-carboxamide] |  | 10 to 200 | < 10 |
| Cc1cc2cc(NC(=O)c3cccc4n[nH]cc34)cnc2[nH]1 [P-2301, N-(2-methyl-1H-pyrrolo[2,3-b]pyridin-5-yl)-2H-indazole-4-carboxamide] |  | 10 to 200 | < 10 |
